Starred links: 1 amine or outer side, 2 acyl side, 3 side chain; linkers in the order of their positions; H or OH if unused. Positions of bridges follow the written chain, without caps; N, C: chain ends. Non-standard residues stand in square brackets, D forms with d. Residues, ends and D or L forms follow the SMILES beside them. X5 = O=C([C@@H]1C[C@H](SCc2ccc(C[*:3])cc2)CN1[*:1])[*:2]; Pro(cis-4-OPh) = O=C(O)[C@@H]1C[C@H](Oc2ccccc2)CN1; Pro(cis-4-CF3) = O=C(O)[C@@H]1C[C@H](C(F)(F)F)CN1; Trp(5-OH) = N[C@@H](Cc1c[nH]c2ccc(O)cc12)C(=O)O; Trp(5-F) = N[C@@H](Cc1c[nH]c2ccc(F)cc12)C(=O)O; Phe(4-CH2NH2) = NCc1ccc(C[C@H](N)C(=O)O)cc1; mXylylene(5-F) = Fc1cc(C[*:1])cc(C[*:2])c1; isoGln = NC(=O)[C@H](CCC(=O)[*:2])N[*:1]; Nle(6-COOH) = N[C@@H](CCCCC(=O)O)C(=O)O; X4 = O=C(CCSCc1cccc(CSCCN[*:1])c1)[*:2]; mXylylene = c1cc(C[*:1])cc(C[*:2])c1; AEF = NCCOc1ccc(C[C@H](N)C(=O)O)cc1; NMeY = CN[C@@H](Cc1ccc(O)cc1)C(=O)O; d(aThr) = C[C@@H](O)[C@@H](N)C(=O)O; X7 = O=C(Cc1ccc(CN[*:1])cc1)[*:2]; αMeP = C[C@@]1(C(=O)O)CCCN1; Mpa = O=C(O)CCS
How the values were obtained:
Format in all cases: binding
[1] = biological target: human PCSK9 / human LDLR EGFa domain interaction (Homo sapiens (Human), UniProt Q8NBP7); assay: TR-FRET assay of inhibition of the PCSK9-LDLR protein-protein interaction; settings: TR-FRET, 20 nM human PCSK9, 20 nM human LDLR EGFa domain, 2 hours room temperature; read-out: IC50
human PCSK9 / human LDLR EGFa domain interaction, sequence (Q8NBP7 153-692): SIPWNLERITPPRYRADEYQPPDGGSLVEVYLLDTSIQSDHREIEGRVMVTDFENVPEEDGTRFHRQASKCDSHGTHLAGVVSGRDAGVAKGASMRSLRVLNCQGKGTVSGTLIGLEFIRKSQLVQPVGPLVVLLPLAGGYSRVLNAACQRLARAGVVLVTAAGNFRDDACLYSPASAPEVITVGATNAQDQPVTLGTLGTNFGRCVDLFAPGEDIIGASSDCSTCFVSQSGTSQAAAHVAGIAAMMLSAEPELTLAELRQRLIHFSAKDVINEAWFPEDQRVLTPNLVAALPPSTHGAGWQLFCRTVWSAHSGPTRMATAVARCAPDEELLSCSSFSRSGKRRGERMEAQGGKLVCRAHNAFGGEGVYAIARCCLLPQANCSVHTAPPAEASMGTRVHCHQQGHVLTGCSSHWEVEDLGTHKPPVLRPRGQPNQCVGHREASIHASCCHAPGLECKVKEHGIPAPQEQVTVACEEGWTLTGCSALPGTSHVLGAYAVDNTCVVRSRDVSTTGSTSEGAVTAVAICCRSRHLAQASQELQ
human PCSK9 / human LDLR EGFa domain interaction, sequence (Q8NBP7 31-152 partner): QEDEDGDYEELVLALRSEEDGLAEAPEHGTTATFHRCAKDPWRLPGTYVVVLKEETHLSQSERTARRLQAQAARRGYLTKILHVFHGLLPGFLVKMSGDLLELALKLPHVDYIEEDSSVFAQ
In short: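 20 nM biotin-avitag PCSK9 + 20 nM His-LDLR EGFa; 5 nM Ulight-SA / 5 nM Eu-anti-His; 2 h RT; HEPES 50 mM, NaCl 150 mM, CaCl2 5 mM, 0.01% BSA, 0.01% P20. Half-maximal inhibition, 4-parameter fit.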

PCSK9 [2] = biological target: T1, PCSK9 (Homo sapiens (Human), UniProt Q8NBP7); assay: PCSK9 Alexa FRET Plus assay (displacement of AlexaFluor647 tagged cyclic peptide Reagent B); settings: 0.5 nM PCSK9, 960 nM AF cyclic peptide Reagent B
T1 sequence (Q8NBP7 153-692): as the sequence (Q8NBP7 153-692) above
In short: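 TR-FRET displacement with final 0.5 nM biotinylated PCSK9, 1.25 nM Strep-Eu and 960 nM AlexaFluor-tagged cyclic peptide in HEPES pH 7.4, NaCl, CaCl2, BSA, P20; ≥2 h at room temperature. IC50 from sigmoidal fit, converted to Ki using peptide KD. Falling europium counts flagged false positives.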

PCSK9 [3] = biological target: T1, PCSK9; assay: PCSK9 Alexa FRET Standard assay (displacement of AlexaFluor647 tagged cyclic peptide Reagent A); settings: PCSK9 Alexa FRET Standard assay, 0.5 nM PCSK9, 20 nM AF cyclic peptide Reagent A; read-out: IC50
In short: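 TR-FRET displacement: 0.5 nM biotinylated PCSK9 with 1.25 nM Strep-Eu and 20 nM AlexaFluor-tagged cyclic peptide (final) in 50 mM HEPES pH 7.4, 0.15 M NaCl, 5 mM CaCl2, 0.01% BSA, 0.01% P20, ≥2 h at room temperature. IC50 from sigmoidal fit, converted to Ki via peptide KD; falling Eu counts flagged false positives.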

[4] = Alexa FRET Plus, read-out: IC50

Row | Compound | IC50 [1] [nM] | IC50 (PCSK9 [2]; [4]) [nM] | IC50 (PCSK9 [3]) [nM] | IC50 (PCSK9 [2]; IC50, Alexa FRET Plus) [nM]
1 | COc1ccc(C[C@@H]2NC(=O)[C@H](Cc3cnc[nH]3)NC(=O)[C@H](CC(=O)O)NC(=O)[C@H](Cc3c[nH]c4ccc(F)cc34)NC(=O)[C@H](Cc3c[nH]c4ccc(F)cc34)NC(=O)[C@@H](C)NC(=O)[C@H](NC(C)=O)CCCCNC(=O)Cc3ccc(cc3)CNC(=O)CC[C@@H](C(N)=O)NC(=O)[C@]3(C)CCCN3C2=O)cc1 [Compound 398] (Ac-[dK][dA][Trp(5-F)][Trp(5-F)]DHY(Me)[αMeP][isoGln][X7]; lactam 1-C) | 0.1 to 100 | 100 to 500 | 0.11 to 100 | –
2 | C[C@H]1NC(=O)[C@H](CCCCN)NC(=O)CCSCc2cccc(c2)CSCCNC(=O)[C@]2(C)CCCN2C(=O)[C@H](Cc2ccc(O)cc2)N(C)C(=O)[C@H](Cc2c[nH]cn2)NC(=O)[C@H](CC(=O)O)NC(=O)[C@H](Cc2c[nH]c3ccc(F)cc23)NC(=O)[C@H](Cc2c[nH]c3ccc(F)cc23)NC1=O [Compound 277] (cyclo(DH[NMeY][αMeP][X4]K[dA][Trp(5-F)][Trp(5-F)])) | 0.1 to 100 | 100 to 500 | 0.11 to 100 | –
3 | COc1ccc(C[C@@H]2NC(=O)[C@H]([C@@H](C)O)NC(=O)[C@@H]3C[C@H](F)CN3C(=O)[C@H](Cc3c[nH]c4ccc(F)cc34)NC(=O)[C@H](Cc3c[nH]c4ccc(F)cc34)NC(=O)[C@@H](C)NC(=O)CNC(=O)CCCCNCc3ccc(cc3)C[C@@H](C(N)=O)NC(=O)[C@]3(C)CCCN3C2=O)cc1 [Compound 130] | 0.1 to 100 | – | 0.11 to 100 | 100 to 500
4 | NCCCC[C@@H]1NC(=O)CCSCc2cccc(c2)CSC[C@@H](C(N)=O)NC(=O)[C@@H]2C[C@H](Oc3ccccc3)CN2C(=O)[C@H](Cc2ccc(O)cc2)NC(=O)[C@H](Cc2cnc[nH]2)NC(=O)[C@H](CC(=O)O)NC(=O)[C@H](Cc2c[nH]c3ccc(F)cc23)NC(=O)[C@H](Cc2c[nH]c3ccc(F)cc23)NC(=O)CNC1=O [Compound 367] ([Mpa]KG[Trp(5-F)][Trp(5-F)]DHY[Pro(cis-4-OPh)]C-NH2; linker 1-10 via mXylylene) | 0.1 to 100 | 500 to 5000 | 100 to 1000 | –
5 | NCCCC[C@@H]1NC(=O)CCSCc2cccc(c2)CSC[C@@H](C(N)=O)NC(=O)[C@@H]2C[C@H](C(F)(F)F)CN2C(=O)[C@H](Cc2ccc(O)cc2)NC(=O)[C@H](Cc2c[nH]cn2)NC(=O)[C@H](CC(=O)O)NC(=O)[C@H](Cc2c[nH]c3ccc(F)cc23)NC(=O)[C@H](Cc2c[nH]c3ccc(F)cc23)NC(=O)CNC1=O [Compound 296] ([Mpa]KG[Trp(5-F)][Trp(5-F)]DHY[Pro(cis-4-CF3)]C-NH2; linker 1-10 via mXylylene) | 0.1 to 100 | 0.1 to 100 | 0.11 to 100 | –
6 | COc1ccc(C[C@@H]2NC(=O)[C@H](C(C)C)NC(=O)[C@@H]3CCCN3C(=O)[C@H](Cc3c[nH]c4ccc(F)cc34)NC(=O)[C@H](Cc3c[nH]c4ccc(F)cc34)NC(=O)[C@@H](C)NC(=O)[C@H](CCCCN)NC(=O)CCSCc3cc(F)cc(c3)CSC[C@@H](C(N)=O)NC(=O)[C@]3(C)CCCN3C2=O)cc1 [Compound 010] ([Mpa]K[dA][Trp(5-F)][Trp(5-F)]PVY(Me)[αMeP]C-NH2; linker 1-10 via mXylylene(5-F)) | 0.1 to 100 | 500 to 5000 | 100 to 1000 | –
7 | NCCCC[C@@H]1NC(=O)CCCn2cc(nn2)CCC[C@@H](C(N)=O)NC(=O)[C@@H]2CCCN2C(=O)[C@H](Cc2ccc(O)cc2)NC(=O)[C@H](Cc2c[nH]cn2)NC(=O)[C@H](CC(=O)O)NC(=O)[C@H](Cc2c[nH]c3ccc(F)cc23)NC(=O)[C@H](Cc2c[nH]c3ccc(F)cc23)NC(=O)CNC1=O [Compound 152] | 0.1 to 100 | 500 to 5000 | 100 to 1000 | –
8 | CC[C@H](C)[C@@H]1NC(=O)[C@@H]2CCCN2C(=O)[C@H](Cc2c[nH]c3ccc(F)cc23)NC(=O)[C@H](Cc2c[nH]c3ccc(F)cc23)NC(=O)[C@@H](C)NC(=O)[C@H](CCCCN)NC(=O)CCSCc2cccc(c2)CSC[C@@H](C(N)=O)NC(=O)[C@]2(C)CCCN2C(=O)[C@H](Cc2ccc(OC)cc2)NC1=O [Compound 007] ([Mpa]K[dA][Trp(5-F)][Trp(5-F)]PIY(Me)[αMeP]C-NH2; linker 1-10 via mXylylene) | 0.1 to 100 | 500 to 5000 | 100 to 1000 | –

The next lines start with results.

Row | IC50 [1] [nM] | IC50 (PCSK9 [2]; [4]) [nM] | IC50 (PCSK9 [3]) [nM] | Compound | IC50 (PCSK9 [2]; IC50, Alexa FRET Plus) [nM]
9 | 0.1 to 100 | 0.1 to 100 | 0.11 to 100 | NCCCC[C@@H]1NC(=O)CCCn2cc(nn2)C[C@@H](C(N)=O)NC(=O)[C@@H]2CCCN2C(=O)[C@H](Cc2ccc(O)cc2)NC(=O)[C@H](Cc2c[nH]cn2)NC(=O)[C@H](CC(=O)O)NC(=O)[C@H](Cc2c[nH]c3ccc(F)cc23)NC(=O)[C@H](Cc2c[nH]c3ccc(F)cc23)NC(=O)CNC1=O [Compound 184] | –
10 | 0.1 to 100 | 500 to 5000 | 100 to 1000 | NCCCC[C@@H]1NC(=O)CCSCc2ccc(cc2)CS[C@H]2C[C@@H](C(N)=O)N(C2)C(=O)[C@H](Cc2ccc(O)cc2)NC(=O)[C@H](Cc2cnc[nH]2)NC(=O)[C@H](CC(=O)O)NC(=O)[C@H](Cc2c[nH]c3ccc(F)cc23)NC(=O)[C@H](Cc2c[nH]c3ccc(F)cc23)NC(=O)CNC1=O [Compound 328] ([Mpa]KG[Trp(5-F)][Trp(5-F)]DHY[X5]-NH2; thioether 1-9) | –
11 | 0.1 to 100 | 0.1 to 100 | 0.11 to 100 | COc1ccc(C[C@@H]2NC(=O)[C@@H]3CCCCC(=O)N[C@H]4C[C@@H](C(=O)N3)N(C4)C(=O)[C@H](Cc3c[nH]c4ccc(F)cc34)NC(=O)[C@H](Cc3c[nH]c4ccc(F)cc34)NC(=O)[C@@H](C)NC(=O)[C@H](CCCN=[N+]=[N-])NC(=O)CCSCc3cccc(c3)CCSCNC(=O)[C@]3(C)CCCN3C2=O)cc1 [Compound 520] | –
12 | 0.1 to 100 | 0.1 to 100 | 0.11 to 100 | COc1ccc(C[C@@H]2NC(=O)[C@@H]([C@@H](C)O)NC(=O)[C@H](CCCCC(=O)O)NC(=O)[C@H](Cc3c[nH]c4ccc(F)cc34)NC(=O)[C@H](Cc3ccc(CN)cc3)NC(=O)[C@@H](C)NC(=O)[C@H](C)NC(=O)CCSCc3cccc(c3)CSCCNC(=O)[C@]3(C)CCCN3C2=O)cc1 [Compound 385] (cyclo(A[dA][Phe(4-CH2NH2)][Trp(5-F)][Nle(6-COOH)][d(aThr)]Y(Me)[αMeP][X4])) | –
13 | 0.1 to 100 | 100 to 500 | 0.11 to 100 | C[C@@]12CCCN1C(=O)[C@H](Cc1ccc(O)cc1)NC(=O)[C@H](Cc1cnc[nH]1)NC(=O)[C@H](CC(=O)O)NC(=O)[C@H](Cc1c[nH]c3ccc(O)cc13)NC(=O)[C@H](Cc1c[nH]c3ccc(F)cc13)NC(=O)CNC(=O)[C@H](CCCCN)NC(=O)CCSCc1cccc(c1)CSC[C@@H](C(N)=O)NC2=O [Compound 399] ([Mpa]KG[Trp(5-F)][Trp(5-OH)]DHY[αMeP]C-NH2; linker 1-10 via mXylylene) | –
14 | 0.1 to 100 | 100 to 500 | 0.11 to 100 | COc1ccc(C[C@@H]2NC(=O)[C@H](Cc3cnc[nH]3)NC(=O)[C@H](CC(=O)O)NC(=O)[C@H](Cc3c[nH]c4ccc(F)cc34)NC(=O)[C@H](Cc3c[nH]c4ccc(F)cc34)NC(=O)[C@@H](C)NC(=O)[C@H](CCCCN)NC(=O)[C@@H](NC(C)=O)CC(=O)NCCOc3ccc(cc3)C[C@@H](C(N)=O)NC(=O)[C@]3(C)CCCN3C2=O)cc1 [Compound 349] (Ac-DK[dA][Trp(5-F)][Trp(5-F)]DHY(Me)[αMeP][AEF]-NH2; lactam 1-10) | –

Reference: patent publication US11530244B2, “Cyclic polypeptides for PCSK9 inhibition” (priority 2018, dated 2022)
